Reference: patent US20100086519A1, “Treatment of Hepatitis C Infection With Metalloporphyrins” (The Charlotte-Mecklenburg Hospital Authority d/b/a …, priority 2008, published 2010)
Like-named read-outs stand apart in the source and are kept apart here.

What was measured:
[1] = molecular target: T1, HCV NS5A protein (Hepatitis C virus genotype 1b, UniProt Q9WMX2); assay: NS5A protein levels by Western blot in 9-13 cells; assay type: cell-based; set-up: processed into structural (C, E1, E2) and nonstructural (NS2, NS3, NS4A, NS4B, NS5A and NS5B) proteins; expressed in transfected cells; host or cells: 9-13 cells (human hepatoma cells with a replicating HCV NS3-NS5B region)
T1 sequence (Q9WMX2 1973-2419): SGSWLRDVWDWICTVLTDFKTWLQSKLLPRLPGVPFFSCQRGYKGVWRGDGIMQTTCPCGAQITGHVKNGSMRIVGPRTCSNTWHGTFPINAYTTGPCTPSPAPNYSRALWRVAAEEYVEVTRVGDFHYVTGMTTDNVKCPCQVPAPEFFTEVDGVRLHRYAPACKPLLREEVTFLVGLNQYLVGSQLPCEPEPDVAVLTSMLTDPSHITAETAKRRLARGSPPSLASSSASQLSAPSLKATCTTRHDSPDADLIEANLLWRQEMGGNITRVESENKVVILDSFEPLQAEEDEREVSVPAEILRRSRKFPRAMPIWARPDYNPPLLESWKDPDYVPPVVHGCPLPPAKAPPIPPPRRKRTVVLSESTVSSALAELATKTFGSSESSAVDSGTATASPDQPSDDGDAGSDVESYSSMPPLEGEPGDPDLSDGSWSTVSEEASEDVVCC
Description: (§1) Bartenschlager (University of Heidelberg, Heidelberg, Germany).
(§2) Biochim Biophys Acta 2008; 1779:195-203.

[2] = tested on: J6/JFH1 HCV RNA; assay: HCV RNA by qRT-PCR in Huh-7.5 cells transfected with J6/JFH1 RNA; assay type: cell-based, hepatitis C virus; conditions: 10 μM, FIG. 8E
Procedure: (§3) Rice (the Rockefeller University, New York, N.Y.).
(§4) Total RNA from treated cells was extracted and cDNA was synthesized as described in Hou et al. Real time quantitative RT-PCR was performed using a MyiQ™ Single Color Real-Time PCR Detection System from Bio-Rad (Hercules, Calif.) and iQ™ SYBR Green Supermix Real-Time PCR kit (Bio-Rad). Samples without template and without reverse transcriptase were included as negative controls, which, as expected, produced negligible signals (Ct values>35). Fold-change values were calculated by comparative Ct analysis after normalizing for the quantity of GAPDH in the same samples.

[3] = tested on: HCV core protein; conditions: CNS3 cells, 0, 1, 5, 10 μM, 4 hours, FIG. 1C
Procedure: 9-13 cells, containing a replicating HCV nonstructural region, stably express HCV NS3 to NS5B. CNS3 cells stably express HCV core to NS3 (amino acid residues 1 through 1233 of the Con1 isolate; Gene Bank accession number AJ238799). Huh-7/T7 cells constitutively express the bacteriophage T7 RNA polymerase. The cells were maintained in DMEM supplemented with 10% (v/v) FBS and 500 μg/mL G418 for 9-13 cells, 10 μg/mL zeocin for CNS3 cells or 5 μg/mL zeocin for Huh-7/T7 cells. […] The Con1 cell line is a Huh-7.5 cell population containing the full-length HCV genotype 1b replicon with the highly adaptive serine to isoleucine substitution at amino acid 2204 of the polypeptide. […]
In brief, total proteins (30-50 μg) were separated on 4-15% gradient SDS-PAGE gels. […] Data are expressed as percentages of the controls (corresponding to the value obtained with the vehicle-treated cells), which were assigned values of one.
(§6) NS5A protein levels in 9-13 and Con1 cells, core protein levels in CNS3 cells, and NS5A and core protein levels in Huh-7/T7 cells transfected with pFK-Con1/GND (a plasmid encoding a replication deficient variant of Con1) exposed to different concentrations of ZnMP (0, 1, 5, 10 μM) for 4 hours were evaluated. […]

[4] = tested on: HCV core protein; conditions: Huh-7/T7 cells, pFK-Con1/GDD, FIG. 7D; much less than in Con1 replicon system
Procedure: (§7) In brief, total proteins (30-50 μg) were separated on 4-15% gradient SDS-PAGE gels. After electrophoretic transfer onto ImmunBlot PVDF membrane, membranes were blocked for 1 hour in PBS containing 5% nonfat dry milk and 0.1% Tween-20, and then incubated overnight with primary antibody at 4° C. The dilutions of the primary antibodies were as follows: 1:2000 for anti-HCV NS5A and anti-GAPDH antibodies, and 1:5000 for anti-HCV core antibody. The membranes were then incubated for 1 hour with horseradish peroxidase-conjugated secondary antibodies (dilution 1:10,000). Finally, the bound antibodies were visualized with the ECL-Plus chemiluminescence system according to the manufacturer's protocol. A Kodak 1DV3.6 computer-based imaging system (Rochester, N.Y.) was used to measure the relative optical density of each specific band obtained after Western blotting. Data are expressed as percentages of the controls (corresponding to the value obtained with the vehicle-treated cells), which were assigned values of one. […]
To evaluate whether ZnMP-mediated degradation of NS5A may play a role in inhibiting HCV replication, Con1 full-length HCV replicon Huh-7.5 cells were treated with different concentrations of ZnMP for 24 hours. […] HCV virus RNA was quantified by qRT-PCR, and the levels of HCV core, NS5A and GAPDH protein were measured by Western blots. […]

[5] = tested on: 9-13 cells; assay: CellTiter-Glo luminescent cell viability assay; assay type: cell-based, human
Procedure: The effect of ZnMP on cytotoxicity of treated cells was measured using CellTiter-Glo® Reagent by determining the number of viable cells based on quantitation of the ATP present, which signaled the presence of metabolically active cells. Cells were plated into a 96-well plate with 2500 to 5000 cells/well 24 hours before treatment. Cells were treated with indicated concentrations of ZnMP for 2, 6 and 24 hours in triplicate, an equal volume of CellTiter-Glo® Reagent was added to each well of cell culture medium. The luminescence was read on a Synergy HT microplate reader from Bio-Tek (Winooski, Vt.) with integration time set for 0.25 to 1 second. Decreases in luminescence were taken as an index of cellular cytotoxicity.
In this Example, the cytotoxicity of metalloporphyrins was evaluated. 9-13 cells were seeded into a 96-well plate 24 hours before treatment. Cells were incubated with the indicated concentrations of ZnMP for 0, 2, 6, 24 hours, and CellTiter-Glo® Reagent was added for CellTiter-Glo luminescent cell viability assay on a Synergy HT microplate reader with integration time set for 0.25 to 1 second. Decreases in luminescence were taken as an index of cellular cytotoxicity. * differs from vehicle, P<0.05, Data represent means±SE of triplicate determinations. […] Therefore, ZnMP concentrations not exceeding 20 μM for up to 6 hours or up to 10 μM for up to 24 hours were used.

[6] = tested on: HCV core protein
Procedure: as §7, §6

[7] = tested on: J6/JFH1 HCV; assay: HCV RNA by qRT-PCR in Huh-7.5 cells infected with J6/JFH1 HCV; assay type: cell-based, hepatitis C virus; conditions: 10 μM, FIG. 8F
Procedure: as §3, §4

[8] = tested on: HCV replicon RNA; assay: HCV RNA by qRT-PCR in Con1 full-length HCV replicon Huh-7.5 cells; assay type: cell-based, hepatitis C virus; conditions: different concentrations, 24 hours, FIG. 7A
Procedure: as §1, §4
(§5) Total RNA and proteins were extracted.

[9] = molecular target: T1, HCV NS5A protein; assay: NS5A protein half-life determination with cycloheximide in 9-13 cells; assay type: cell-based; set-up: processed into structural (C, E1, E2) and nonstructural (NS2, NS3, NS4A, NS4B, NS5A and NS5B) proteins; expressed in transfected cells; host or cells: 9-13 cells (human hepatoma cells with a replicating HCV NS3-NS5B region); conditions: 100 ug/mL CHX, 10 μM ZnMP, 0-4 h, FIGS. 4A, 4B
Procedure: 9-13 cells were incubated with 100 ug/mL cycloheximide (CHX) in the presence or absence of 10 uM ZnMP. Western blots were performed using anti-HCV NS5A and anti-GAPDH antibodies. Band intensities of Western blots were measured by densitometric analysis. GAPDH bands were used as internal controls to correct for protein loadings.
9-13 cells were treated with 100 ug/mL cycloheximide (CHX) and with or without 10 μM ZnMP for the indicated periods (0, 0.5, 1, 2, 4 h), and then cells were harvested and total proteins were isolated. Proteins were separated on 4-15% SDS-polyacrylamide gel, transferred to a PVDF membrane, anti-HCV NS5A or GAPDH specific antibodies were used to detect NS5A or GAPDH protein levels by Western blot. […] The band intensity of NS5A from untreated sample (0 h) was set at 1.

[10] = molecular target: T1, HCV NS5A protein; assay: NS5A protein levels in Huh-7/T7 cells transfected with pFK-Con1/GND; assay type: cell-based; set-up: processed into structural (C, E1, E2) and nonstructural (NS2, NS3, NS4A, NS4B, NS5A and NS5B) proteins; expressed in transfected cells; host or cells: Huh-7/T7 cells transiently transfected with pFK-Con1/GND; conditions: 24 h, FIG. 7C
Description: as §2, §5

[11] = tested on: HCV; assay: anti-viral activity (summary statement); assay type: cell-based, hepatitis C virus

CCC1=C(C)c2cc3[nH]c(cc4nc(cc5[n-]c(cc1n2)c(C)c5CCC(=O)[O-])C(CCC(=O)[O-])=C4C)c(C)c3CC.[H+].[Zn+2] [ZnMP, Zinc mesoporphyrin]
NS5A protein levels ([1]; 9-13 cells, 10 μM ZnMP alone, 10 and 24 hours, FIG. 9B): slightly increased
NS5A protein levels ([1]; 9-13 cells, 10 μM ZnMP alone, as little as 2 hours, FIG. 9B): rapid and marked down-regulation
NS5A protein levels, time course ([1]; 9-13 cells, 10 μM, 0, 2, 4, 6 h, FIG. 2B): markedly and rapidly decreased
NS5A protein levels before immunoprecipitation ([1]; 9-13 cells, 10 μM, 4 h, FIG. 6A): down-regulation
NS5A protein levels ([1]; 9-13 cells, 10 μM, 4 hours, FIG. 2A): decreased
NS5A protein levels ([1]; 9-13 cells, ZnMP 0, 1, 5, 10 μM, 4 hours, FIG. 1A): marked decrease
reduction of NS5A protein levels ([1]; about 1 μM, 4 hours, stated for bar graphs of FIGS. 1A/1B (9-13 and Con1 cells)): about 60%
decrease of HCV RNA levels [2]: ~70%
HCV core protein levels [3]: no detectable effects
HCV core protein levels [4]: reduction of core
cell viability ([5]; 20 μM, 2-6 hours): no significant effect
cytotoxicity ([5]; 20 μM, 24 hours, p<0.05): significant cytotoxicity
cell viability ([5]; 1-10 μM, 2-24 hours): no significant effect
HCV core protein levels ([6]; Huh-7/T7 cells transfected with pFK-Con1/GND, 0, 1, 5, 10 μM, 4 hours, FIG. 1D): no detectable effects
HCV core protein levels ([6]; Huh-7/T7 cells, pFK-Con1/GND, 24 h, FIG. 7C): remained unaffected
decrease of HCV RNA levels [7]: ~90%
viral RNA levels [8]: dose-dependent reduction
NS5A protein levels in presence of cycloheximide [9]: greatly and rapidly reduced
NS5A protein levels [10]: markedly decreased
anti-viral activity (summary statement) [11]: display anti-viral activity
